In PMC3501490 (PLoS ONE, 2012):
Like-named read-outs stand apart in the source and are kept apart here. Where no end group is shown, it is not given here. [ ]: non-standard residue; d: D form. pY = N[C@@H](Cc1ccc(OP(=O)(O)O)cc1)C(=O)O

Tests used:
[1] = test system: G6B-b tyrosine phosphorylation; experiment: G6B-b tyrosine phosphorylation in washed human platelets (4G10 staining); format: cell-based; settings: for G6B-b tyrosine phosphorylation: 1 µg/ml CRP, 5 minutes, 4G10 staining, n = 4; for state of G6B-b phosphorylation: PP2 5 µM, PP3 5 µM or pervanadate, 10 minutes
Description: One microgram of antibody was bound to 10 µl of Protein A-sepharose (20 µl of a 50% slurry), in a final volume of 100 µl PBS, by incubation on a rotating wheel for 90 minutes at 4°C. Washed human platelets were incubated with either Tyrodes, 5 µM PP2, 5 µM PP3 or pervanadate for 10 minutes, after which they were pelleted and lysed in DP lysis buffer (20 mM Tris pH 7.5, 150 mM NaCl, 5 mM NaOV4, 1× Complete Protease Inhibitor (Roche) and 5% w/v n-Dodecyl-β-D-maltoside (Calbiochem)) such that each IP sample received 4×10^8 platelets in a final volume of 100 µl DP lysis buffer. Samples were mixed on a rotating wheel at 4°C for 1 hour. Samples were washed once in 200 µl DP lysis buffer and twice in 1 ml PBS prior to boiling in Laemmli buffer for 5 minutes.
We wanted to determine whether SHP-2 could associate with the receptor in human platelets as this interaction could relate to receptor function and regulation of GPVI signalling. […] In the absence of receptor agonists, we carried out co-immunoprecipitation experiments in platelet lysates treated with the SFK inhibitor, PP2, its non-active analogue, PP3, or the tyrosine phosphatase inhibitor, pervanadate. […] Under these conditions, isolation of […] by immunoprecipitation was robust (Figure 1B, top panel).
(A) Washed human platelets were incubated under stirring, but non-aggregating, conditions with the SFK inhibitor, PP2, or DMSO, prior to the addition of 1 µg/ml CRP or Tyrodes buffer. Samples were collected after 5 minutes. Tyrosine phosphorylation was detected by 4G10 staining (top panel, n = 4). […] (B) G6B-b co-immunoprecipitates with […] in pervanadate-treated washed human platelets.

[2] = target: T1, N-terminal SH2 domain of SHP-2 (Homo sapiens, UniProt Q06124); experiment: SPR (BIAcore 3000), single N-terminal SH2 domain of SHP-2; format: binding; settings: HBS pH 7.4, 37°C, 10 µl/min
T1 construct: SHP-2 (N)SH2 (His-tag) (OMC #3912); His-tag; host or cells: E. coli BL21(DE3)
T1 sequence (Q06124 6-102 limits assumed): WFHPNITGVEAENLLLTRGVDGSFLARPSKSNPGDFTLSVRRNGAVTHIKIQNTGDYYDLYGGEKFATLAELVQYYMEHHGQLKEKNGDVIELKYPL
Description: (§1) These proteins were expressed in BL21(DE3) cells (Invitrogen) induced with 1 mM IPTG for 4 hours at 37°C. Bacteria were pelleted and washed in PBS/0.5 M NaCl prior to sonication in PBS/0.5 M NaCl, in the presence of protease inhibitor cocktail (Complete, EDTA-free, Roche). Soluble and insoluble fractions were separated by centrifugation at 30,000 g for 60 minutes. Soluble fractions containing tagged proteins were incubated for 1 hour at 4°C with end-over-end mixing in the presence of washed Ni-Sepharose (GE Lifesceinces, Little Chalfont, U.K.) supplemented with 40 mM imidazole or Amylose resin (NEB, Herts, U.K). Proteins were eluted according to the manufacturer's instructions and purified by size exclusion chromatography on an AKTApurifier (GE Lifesciences, Little Chalfont, U.K).
Experiments were conducted on a BIAcore™ 3000 in HBS buffer (0.01 M HEPES, pH 7.4, containing 0.15 M NaCl, 3 mM EDTA, and 0.005% v/v P-20, GE Life Sciences, Amersham, UK). Streptavidin was coupled to a research grade CM5 chip (GE Life Sciences, Amersham, UK) as previously described, [13]. Protein-peptide interactions were carried out a rate of 10 µl/min at a constant temperature of 37°C to more accurately reflect physiological conditions. Biotinylated peptides were bound to the streptavidin-coated CM5 chips at 37°C to between 25–50 RU [14]. Purified monomeric SH2 domains were passed over the immobilised peptides at a range of concentrations. Anti-phosphotyrosine monoclonal antibody (Sigma, Poole, U.K.) was passed over the chip to saturation at the end of each experiment to verify peptide coverage on the chip. Binding affinities for the single ITIM/ITSM peptides were determined by plotting equilibrium binding measurements (RU) against SH2 domain protein concentration (Origin 8, OriginLab, MA, USA). KD was defined as the concentration of SH2 protein that gave half maximal binding to the peptide. […] KD was determined as Koff/Kon, which were determined using both GraphPad Prism 5.0 (GraphPad, La Jolla, CA, USA) and BIAevaluation Software (GE Life Sciences, Amersham,UK).

[3] = test system: G6B-b dual phosphopeptide; experiment: SPR (BIAcore 3000) of SHP-1/SHP-2 tandem SH2 domains over immobilised G6B-b phosphopeptide; format: binding, human; settings: for Koff / Kd: HBS pH 7.4, 37°C, 50 µl/min; for Koff: Prism 5; for Kd: KD = Koff/Kon
Description: Experiments were conducted on a BIAcore™ 3000 in HBS buffer (0.01 M HEPES, pH 7.4, containing 0.15 M NaCl, 3 mM EDTA, and 0.005% v/v P-20, GE Life Sciences, Amersham, UK). Streptavidin was coupled to a research grade CM5 chip (GE Life Sciences, Amersham, UK) as previously described, [13]. Protein-peptide interactions were carried out a rate of 10 µl/min at a constant temperature of 37°C to more accurately reflect physiological conditions. Biotinylated peptides were bound to the streptavidin-coated CM5 chips at 37°C to between 25–50 RU [14]. Purified monomeric SH2 domains were passed over the immobilised peptides at a range of concentrations. Anti-phosphotyrosine monoclonal antibody (Sigma, Poole, U.K.) was passed over the chip to saturation at the end of each experiment to verify peptide coverage on the chip. Binding affinities for the single ITIM/ITSM peptides were determined by plotting equilibrium binding measurements (RU) against SH2 domain protein concentration (Origin 8, OriginLab, MA, USA). KD was defined as the concentration of SH2 protein that gave half maximal binding to the peptide. For the 60-mer peptides, SH2 domains were passed over the chip surface at 50 µl/min. KD was determined as Koff/Kon, which were determined using both GraphPad Prism 5.0 (GraphPad, La Jolla, CA, USA) and BIAevaluation Software (GE Life Sciences, Amersham,UK).
Previous studies have shown that using single phosphomotifs (isolated from sequences in which they may exist in tandem) and single SH2 domains can be misleading, [16]. We, therefore, assessed phosphatase-G6B-b interactions in more detail using the tandem SH2 domains of both SHP-2 (Figure 4A) and SHP-1 (Figure 4B). We kinetically determined the binding affinity (KD = koff/kon) by SPR at physiological temperatures.

[4] = test system: endogenous G6B-b; experiment: Pull down of endogenous G6B-b from platelet lysate with purified SH2 domains; format: binding; settings: washed human platelet lysates activated with CRP or thrombin
Description: as §1, with “Proteins were eluted according to the manufacturer's instructions and purified by size exclusion chromatography on an AKTApurifier (GE Lifesciences, Little Chalfont, U.K).” left out
Based on this study, the N-terminal SH2 domains of both SHP-1 and SHP-2 should preferentially bind to the ITIM (central pY at position 211) while the C-terminal domains should associate with the ITSM (pY at position 237). […] The N-terminal SH2 domain of SHP-1 was insoluble and it was not possible to purify sufficient quantities for binding studies. […]
(A) Peptide associated material was isolated from pre-cleared lysates separated on 4–12% NuPage Bis-Tris gels; proteins identified by Western Blotting (representative blots, n = 3). […] Bound material was separated from unbound material by SDS-PAGE and quantified (n = 3, SEM, ** denotes p<0.01, * denotes p<0.05). […]

[5] = test system: washed human platelets (collagen); experiment: Light transmission aggregometry of TAT-peptide-loaded platelets, collagen; format: cell-based; settings: vehicle (DMSO) control; light transmission aggregometry
Description: (§2) Whole blood was taken from healthy volunteers and collected into 50 ml syringes containing 5 ml acid citrate-dextrose (ACD) in accordance with procedures approved by the Local Research Ethics Committee (Ref: 07/Q1603/17). Platelet-rich plasma (PRP) was isolated by centrifugation at 200 g for 10 minutes at room temperature. PRP was pooled and 10 µg PGI2 was added before centrifugation at 1000 g for 10 minutes at room temperature. Platelets were resuspended in 1 ml Tyrodes buffer (134 mM NaCl, 0.34 mM Na2HPO4, 2.9 mM KCl, 12 mM NaHCO3, 20 mM HEPES, 5 mM glucose, 1 mM MgCl2, pH 7.3) pre-warmed to 30°C and 150 µl ACD. The volume was adjusted to 25 ml with Tyrodes buffer, followed by 3 ml ACD and 1.25 µg PGI2. Cells were centrifuged at 1000 g for 10 minutes at room temperature and the resultant cell pellet was resuspended in 1 ml pre-warmed Tyrodes buffer before adjusting the volume to a final cell density of 4×10^8 cells/ml (aggregations) or 2×10^9 cells/ml (peptide pull downs). Where appropriate, 1 mM EGTA, 10 µM indomethacin and 2 U/ml apyrase were added to inhibit aggregations (referred to as non-aggregating conditions).
(§3) Fluorescein-labelled, TAT-G6B-b peptides were synthesised by Peptide Protein Research Ltd (Hampshire, U.K.). Peptides were either unphosphorylated, or phosphorylated at both ITIMs as follows: Dual phosphorylated peptide – FLUO- […]*[…]*AVVV or unphosphorylated control peptide (lacking tyrosine phosphorylation) - FLUO- […]. TAT sequences are underlined and phosphorylated tyrosines marked with an asterisk. Peptides were loaded into washed platelets by incubation with 10 µM peptide for 15 minutes at 30°C, after which they were assessed by light transmission aggregometry. Peptide loading conditions were optimised and verified by flow cytometry.
(§4) Washed human platelets were loaded with TAT-G6B-b peptides (either dual phosphorylated or unphosphorylated) and changes in CRP efficacy determined by light transmission aggregometry. […] Thrombin-mediated activation was unaffected (data not shown). […] Peptide loading was verified by flow cytometry (Figure 9C and 9D.

[6] = test system: washed human platelets (CRP); experiment: Light transmission aggregometry of TAT-peptide-loaded platelets, CRP; format: cell-based; settings: vehicle (DMSO) control; light transmission aggregometry
Description: as §2, §3, §4

CC(C)(C)n1nc(-c2ccc(Cl)cc2)c2c(N)ncnc21 [PP2]
G6B-b tyrosine phosphorylation [1]: reduced the G6B-b tyrosine phosphorylation in response to CRP | state of G6B-b phosphorylation [1]: non-phosphorylation

Nc1ncnc2c1cnn2-c1ccccc1 [PP3]
G6B-b tyrosine phosphorylation [1]: no effect on tyrosine phosphorylation | state of G6B-b phosphorylation [1]: partial/sub-maximal

PLVKTEPQRPVKEEEPKIPGDLDQEPSLLYADLDHLALSRPRRLSTADPADASTI[pY]AVVV [pY237]
Kd ([2]; read-out: KD, estimated by fixing maximum binding): 10 µM

PLVKTEPQRPVKEEEPKIPGDLDQEPSLL[pY]ADLDHLALSRPRRLSTADPADASTIYAVVV [pY211]
Kd ([2]; equilibrium binding, single site fitting, read-out: KD): 0.11 µM

SHP-1: SHP-1 (N+C)SH2 domains, recombinant
Koff ([3]; tandem SH2 domains 0.1 nM): 0.0104 s⁻¹ | Kd ([3]; tandem SH2 domains 0.1 nM): 43.3 nM | Koff ([3]; tandem SH2 domains 1 nM): 0.01106 s⁻¹ | Kd ([3]; tandem SH2 domains 1 nM): 42.5 nM | Koff ([3]; tandem SH2 domains 10 nM): 0.01141 s⁻¹ | Kd ([3]; tandem SH2 domains 10 nM): 20.3 nM | Koff ([3]; tandem SH2 domains 100 nM): 0.01025 s⁻¹ | Kd ([3]; tandem SH2 domains 100 nM): 32 nM | Koff ([3]; tandem SH2 domains 1000 nM): 0.00892 s⁻¹ | isolation of endogenous G6B-b [4]: able to isolate endogenous G6B-b from platelet lysate

SHP-2: SHP-2 (N+C)SH2 domains, recombinant
fold higher binding affinity of SHP-2 tandem SH2 domains than single N(SH2) domain ([3]; SPR, dual phosphopeptide): approximately 200 fold | Koff ([3]; tandem SH2 domains 0.1 nM): 0.0720 s⁻¹ | Kd ([3]; tandem SH2 domains 0.1 nM): 0.474 nM | Koff ([3]; tandem SH2 domains 1 nM): 0.1660 s⁻¹ | Kd ([3]; tandem SH2 domains 1 nM): 0.624 nM | Koff ([3]; tandem SH2 domains 10 nM): 0.0206 s⁻¹ | Kd ([3]; tandem SH2 domains 10 nM): 0.145 nM | Koff ([3]; tandem SH2 domains 100 nM): 0.0144 s⁻¹ | Kd ([3]; tandem SH2 domains 100 nM): 0.528 nM | Koff ([3]; tandem SH2 domains 1000 nM): 0.0106 s⁻¹ | Kd ([3]; tandem SH2 domains 1000 nM): 0.634 nM | isolation of endogenous G6B-b [4]: able to isolate G6B-b from platelet lysate

collagen [reference compound]
EC50 of collagen, vehicle control platelets [5]: 0.4 µg/mL

collagen-related peptide [CRP, reference compound]
EC50 of CRP, vehicle control platelets [6]: 0.4 µg/mL

pervanadate
state of G6B-b phosphorylation [1]: maximal phosphorylation
